Reference: PubChem BioAssay (NCI)
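Method: 48-hour compound exposure of cells in 96-well plates, five concentrations, linear interpolation of endpoints. TGI: total growth inhibition.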

What was measured:
Test in all cases: DTP human tumour cell line panel, 48 h
[1] = system: SK-MEL-2 melanoma
[2] = system: OVCAR-3 ovarian
[3] = system: OVCAR-8 ovarian
[4] = system: SN12C renal
[5] = system: CAKI-1 renal
[6] = system: MDA-MB-231 breast
[7] = system: K-562 leukemia
[8] = system: UO-31 renal
[9] = system: RXF 393 renal
[10] = system: HS 578T breast
[11] = system: HOP-92 NSCLC

| SMILES | TGI [1] | TGI [2] | TGI [3] | TGI [4] | TGI [5] | TGI [6] | TGI [7] | TGI [8] | TGI [9] | TGI [10] | TGI [11] |
| --- | --- | --- | --- | --- | --- | --- | --- | --- | --- | --- | --- |
| O=C(O)c1cccc(S(=O)(=O)NN2C(=O)CSC2c2c(O)ccc3ccccc23)c1 (configuration not stated) | > 100 µM | 62.5 µM | 15.7 µM | > 100 µM | 68 µM | > 100 µM | > 100 µM | > 100 µM | 89.1 µM |  |  |
| Nc1c(C(=O)O)nnc2cc(Cl)ccc12 | > 100 µM | > 100 µM | > 100 µM | > 100 µM | > 100 µM | > 100 µM | > 100 µM | > 100 µM |  | > 100 µM |  |
| CCN(CC)C(=O)c1cc([N+](=O)[O-])c(=O)n2c1[nH]c1ccccc12 |  | > 100 µM | > 100 µM | > 100 µM | > 100 µM | > 100 µM | > 100 µM | > 100 µM | > 100 µM | > 100 µM | > 100 µM |
| COc1cc(-c2nc(SC)nc3c2CCc2ccccc2-3)cc(OC)c1OC | > 100 µM | > 100 µM | > 100 µM | > 100 µM |  | > 100 µM | 79.2 µM | > 100 µM | > 100 µM | > 100 µM | > 100 µM |
| O=C(CN1CCN(c2ccccn2)CC1)N1CCCn2c1nc1ccccc1c2=O | > 100 µM | > 100 µM | > 100 µM | > 100 µM | > 100 µM | > 100 µM | > 100 µM | > 100 µM |  | > 100 µM | > 100 µM |
| C=C(Cl)CN1c2ccccc2C=Cc2ccccc21 | 40.6 µM | 33.9 µM | > 100 µM | 57.3 µM | 52.9 µM | 35.7 µM |  | 82 µM | 33 µM | > 100 µM | 61.2 µM |
| Cc1ccc2c(c1)Nc1ccccc1P2(=O)O | > 100 µM | > 100 µM | > 100 µM | > 100 µM | > 100 µM | > 100 µM | > 100 µM | > 100 µM | > 100 µM |  | > 100 µM |
| Clc1ncnc2c1nc(C#Cc1ccccc1)n2C1CCCCO1 (configuration not stated) | 6.49 µM | 2.92 µM | 12.4 µM |  | 3.91 µM | 12.7 µM | 7.46 µM | 3.38 µM |  | 42.6 µM | 3.83 µM |
| CC1C(c2ccccc2)NC(c2ccccc2)CC1(N)C#N (configuration not stated) |  | > 100 µM | > 100 µM | > 100 µM | > 100 µM | > 100 µM | > 100 µM | > 100 µM | > 100 µM | > 100 µM | > 100 µM |
| N#Cc1c(N2CCCC2)nsc1Nc1ccccc1 | > 100 µM |  | > 100 µM | > 100 µM |  | > 100 µM | > 100 µM | > 100 µM | > 100 µM | > 100 µM | > 100 µM |
| Cc1cc(OCc2nnc3n2N=C(c2cc(F)c(Cl)cc2Cl)/C(=C/c2ccc(-c4ccc(Cl)cc4)o2)S3)ccc1Cl | > 50 µM | > 50 µM | > 50 µM | > 50 µM | > 50 µM | > 50 µM | > 50 µM | > 50 µM | > 50 µM | > 50 µM |  |
| NNS(=O)(=O)c1ccc(/C=C2\NC(=O)NC2=O)cc1 | > 100 µM | > 100 µM | > 100 µM | > 100 µM | > 100 µM | > 100 µM | > 100 µM | > 100 µM |  | > 100 µM | > 100 µM |
| Cn1c(-c2c(C3=CC(=O)N(c4ccccc4)C3=O)c3ccccc3n2C)cc2ccccc21 | > 100 µM | > 100 µM | > 100 µM | > 100 µM | > 100 µM | > 100 µM | > 100 µM | > 100 µM | > 100 µM |  | > 100 µM |
| COc1cc2nc(-c3cccs3)nc(N3C(c4cc(OC)c(OC)c(OC)c4)=NNC(=O)c4ccccc43)c2cc1OC | > 100 µM | 50.2 µM | > 100 µM | 51.3 µM | > 100 µM | 40.6 µM | > 100 µM | > 100 µM |  | > 100 µM | > 100 µM |
| Cc1ccc(S(=O)(=O)N/N=C\c2c3ccccc3[n+](C)c3ccccc23)cc1 | > 100 µM | 71.5 µM | > 100 µM | > 100 µM | > 100 µM |  | 52.7 µM | 88.9 µM | 43.6 µM |  | 73.2 µM |
| CC(C)(C)CC(C)(C)NCC(O)COc1ccc(C(C)(C)c2ccc(OCC(O)CNC(C)(C)CC(C)(C)C)cc2)cc1 (configuration not stated) | 3.28 µM | 2.47 µM | 3.25 µM | 3.04 µM | 3.13 µM |  | 1.16 µM | 2.98 µM | 2.75 µM |  | 3 µM |
| Fc1ccc2c(c1)nc1n2C(c2c(F)cccc2F)SC1 (configuration not stated) | > 100 µM | > 100 µM | > 100 µM | > 100 µM | > 100 µM | > 100 µM |  | > 100 µM | > 100 µM | > 100 µM | > 100 µM |
| Cc1ccc(S(=O)(=O)NC(=O)NC(CC(=O)O)C(=O)O)cc1 (configuration not stated) | > 100 µM |  | > 100 µM | > 100 µM |  | > 100 µM | > 100 µM | > 100 µM | > 100 µM | > 100 µM | > 100 µM |
| OC(CCl)CN1CC[N+]2(CC1)CC[N+]1(CCN(CC(O)CCl)CC1)CC2 (configuration not stated) | > 50 µM | > 50 µM | > 50 µM | > 50 µM | > 50 µM |  | > 50 µM | > 50 µM | > 50 µM |  | > 50 µM |
| O=C(NNc1nc(-c2ccccc2)cs1)Nc1ccccc1 | 44.6 µM | 50.2 µM | 46.8 µM | 97.8 µM | > 100 µM | 54.4 µM | > 100 µM | 75.2 µM | 36.8 µM | 74.3 µM |  |
| O=C(Cn1c(=O)oc2ccc(C(=O)c3cccc(Cl)c3)cc21)c1ccccc1 | > 100 µM | > 100 µM | > 100 µM | > 100 µM | > 100 µM | > 100 µM | > 100 µM | > 100 µM |  | > 100 µM | > 100 µM |
| CNC(=O)C1OC(n2cnc3c(NCc4cccc(I)c4)nc(Cl)nc32)C(O)C1O (configuration not stated) | 27.8 µM | 25.7 µM | 26.7 µM | 41 µM | 40.7 µM | 66.6 µM | > 100 µM | 24.6 µM | 29.6 µM | 18.7 µM |  |
